Experimental data reported in US10751318B2, “Pharmaceutical co-crystal and use thereof” (SYN-NAT PRODUCTS ENTERPRISE LLC, priority 2015, dated 2020).
Values joined by “and” are separate entries in the source; they are usually repeats but may differ in a detail not shown here. Equal values may be shown once. Read-outs that look alike come from different tables or passages of the source.

Assays:
[1] = system: A498 kidney cancer cell line; test: MTS cell viability assay, A498 kidney cancer cells; assay type: cell-based
[2] = system: ACHN kidney cancer cell line; test: MTS cell viability assay, ACHN kidney cancer cells; assay type: cell-based; details: read-out: IC50 to reduce ACHN cell number
[3] = system: human embryonic kidney cell line HEK293; test: MTS cell viability assay, HEK293 (kidney cancer study; controls carboplatin, 5-FU)
[4] = system: fetal hepatocytes HL-7002; test: MTS cell viability assay, HL-7002 (kidney cancer study; controls carboplatin, 5-FU); details: for IC50: read-out: IC50 in HL-7002 cells
[5] = system: PC-3 prostate cancer cell line; test: MTS cell viability assay, PC-3 prostate cancer cells; assay type: cell-based, human; details: PC-3 cells, 0.01 to 300 μM, read-out: IC50 to reduce PC-3 cell number
[6] = system: LNCaP prostate cancer cell line; test: MTS cell viability assay, LNCaP prostate cancer cells; assay type: cell-based, human; details: 0.01 to 300 μM, read-out: IC50 to reduce LNCaP cell number
[7] = system: human embryonic kidney cell line HEK293; test: MTS cell viability assay, HEK293 (prostate cancer study; controls docetaxel, cisplatin); details: for toxicity to HEK293 cells: study with docetaxel and cisplatin (FIG. 4)
[8] = system: fetal hepatocytes HL-7002; test: MTS cell viability assay, HL-7002 (prostate cancer study; controls docetaxel, cisplatin); details: for IC50: read-out: IC50 to reduce HL-7002 cell number
[9] = system: HBsAg secreted by HepG2.2.15 cells; test: HBsAg secreted by HepG2.2.15 cells (ELISA); assay type: cell-based, hepatitis B virus; details: 3d
Text: (§1) The levels of HbsAg and HbeAg in chemical-treated HepG2.2.15 cells were detected by enzyme-linked immunosorbent assay (ELISA).

[10] = system: HBeAg secreted by HepG2.2.15 cells; test: HBeAg secreted by HepG2.2.15 cells (ELISA); assay type: cell-based, hepatitis B virus; details: 3d
Text: as §1

[11] = A498 cells, MTS, 0.01 to 300 uM, read-out: IC50 to reduce A498 cell number
[12] = ACHN cells, MTS, 0.01 to 300 uM
[13] = read-out: IC50 in HEK293 cells, HEK293 cells, study with carboplatin and 5-FU (FIG. 8)
[14] = HL-7002 cells, study with carboplatin and 5-FU (FIG. 7)
[15] = HL-7002 cells, study with docetaxel and cisplatin (FIG. 3)
[16] = HEK293 cells, similar conditions
[17] = HL-7002 cells, similar conditions

`O=c1[nH]cc(F)c(=O)[nH]1` [5-FU, fluorouracil, reference compound] gave an IC50 ([1]; Homo sapiens, A498, read-out: IC50 to reduce A498 cell number) of 18.2 µM, an IC50 ([2]; Homo sapiens, ACHN) of 6.45 µM and an IC50 ([3]; Homo sapiens, HEK293, read-out: IC50 in HEK293 cells) of 356 µM. The IC50 ([4]; Homo sapiens, Hepatocyte) was 45 µM.

Compound `N.N.O=C([O-])C1(C(=O)[O-])CCC1.[Pt+2]` [carboplatin, reference compound] has an IC50 [1, 11] of 14.7 µM, an IC50 [2, 12] of 11 µM and a water solubility (Water solubility) of 18 mg/mL. It also gave an IC50 [3, 13] of 237 µM and an IC50 [4, 14] of 34 µM.

Work on `N.N.[Cl][Pt][Cl]` [cisplatin, reference compound] yielded an IC50 [5] of 2.49 µM, an IC50 [6] of 2.25 µM and an IC50 ([7]; read-out: IC50 in HEK293 cells, study with docetaxel and cisplatin (FIG. 4)) of 6.9 µM. The IC50 [8, 15] was 2.01 µM.

In the case of `CC(=O)O[C@@]12CO[C@@H]1C[C@H](O)[C@@]1(C)C(=O)[C@H](O)C3=C(C)[C@@H](OC(=O)[C@H](O)[C@@H](NC(=O)OC(C)(C)C)c4ccccc4)C[C@@](O)([C@@H](OC(=O)c4ccccc4)[C@H]21)C3(C)C` [docetaxel, reference compound], the “toxicity to HEK293 cells” value [7] is reported as “strong toxicity” and the IC50 ([8]; Homo sapiens, Hepatocyte) is reported as 0.095 µM.

For “carboplatin cis-cyclobutane-1,2-dicarboxylic acid co-crystal [CBCBP]”, the IC50 [5] was ~17.6 µM and 17.6 µM, the IC50 [6] was about 19.6 µM and the IC50 [1, 11] was ~18.4 µM and 18.4 µM. For the same compound, the IC50 [2, 12] was 11.6 µM and ~11.6 µM, the “inhibition rate HbsAg” value ([9]; 3.125 μg/mL) was 19.5% and the “inhibition rate HbsAg” value ([9]; 6.25 μg/mL) was 23.6%. The “inhibition rate HbsAg” value ([9]; 12.5 μg/mL) was 37.3%, the “inhibition rate HbsAg” value ([9]; 25 μg/mL) was 48.5% and the “inhibition rate HbeAg” value ([10]; 3.125 μg/mL) was 0.6%. For the same compound, the “inhibition rate HbeAg” value ([10]; 6.25 μg/mL) was 25.0%, the “inhibition rate HbeAg” value ([10]; 12.5 μg/mL) was 25.3% and the “inhibition rate HbeAg” value ([10]; 25 μg/mL) was 28.5%. For the same compound, the water solubility (Water solubility) was about 30 mg/mL, the “toxicity of CBCBP relative to 5-FU” value [3, 16] was “about ¼” and the “toxicity of CBCBP relative to carboplatin” value [3, 16] was “about ⅕”. For the same compound, the IC50 [3, 13] was 1200 µM and ~1200 µM, the “toxicity of CBCBP relative to 5-FU” value [4, 17] was “about ⅛” and the “toxicity of CBCBP relative to carboplatin” value [4, 17] was “about 1/10”. The IC50 [4, 14] was 351 µM and ~351 µM, the “toxicity to HEK293 cells” value [7] was “no toxicity” and the “toxicity of CBCBP relative to cisplatin” value [8, 17] was “about 1/10”. The “toxicity of CBCBP relative to docetaxel” value [8, 17] was “about 1/216” and the IC50 [8, 15] was ~20.5 µM and 20.5 µM.
